The values that follow come from ChEMBL document CHEMBL5335825, “Multi-target potential of newly designed tacrine-derived cholinesterase inhibitors: Synthesis, computational and pharmacological study” (Bioorg Med Chem, 2024).

For data set [1], the target named is Acetylcholinesterase (Electrophorus electricus, UniProt O42275). Briefly: Inhibition of electric eel AChE using acetylthiocholine iodide as substrate preincubated for 10 mins followed by substrate addition and measured every min for 10 mins by DTNB based Ellman's assay. On the technique in general: DTNB colorimetry detects thiols as they appear.
Acetylcholinesterase, sequence (O42275 whole entry): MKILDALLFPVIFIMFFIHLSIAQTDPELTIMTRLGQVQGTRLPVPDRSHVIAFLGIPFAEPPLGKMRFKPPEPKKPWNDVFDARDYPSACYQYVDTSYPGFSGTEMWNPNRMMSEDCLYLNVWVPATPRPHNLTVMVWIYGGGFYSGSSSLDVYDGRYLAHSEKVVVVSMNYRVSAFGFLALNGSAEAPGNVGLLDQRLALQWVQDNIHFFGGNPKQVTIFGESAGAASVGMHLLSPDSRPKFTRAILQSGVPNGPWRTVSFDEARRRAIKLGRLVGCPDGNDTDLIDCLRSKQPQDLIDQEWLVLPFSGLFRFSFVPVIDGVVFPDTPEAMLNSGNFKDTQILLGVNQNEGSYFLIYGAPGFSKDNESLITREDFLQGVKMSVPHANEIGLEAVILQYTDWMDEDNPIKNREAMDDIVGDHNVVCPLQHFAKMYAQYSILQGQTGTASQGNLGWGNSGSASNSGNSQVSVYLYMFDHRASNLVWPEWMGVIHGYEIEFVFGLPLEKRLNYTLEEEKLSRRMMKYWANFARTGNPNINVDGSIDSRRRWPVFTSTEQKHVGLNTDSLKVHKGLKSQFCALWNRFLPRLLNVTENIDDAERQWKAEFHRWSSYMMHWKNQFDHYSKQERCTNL
A short description of data set [2]: Selectivity index, ratio of IC50 for cytotoxicity against human SH-SY5Y cells to IC50 for inhibition of equine serum BuChE.
Data set [3] deals with Cholinesterase (Equus caballus, UniProt P81908). Briefly: Inhibition of equine serum BuChE using butyrylthiocholine iodide as substrate preincubated for 10 mins followed by substrate addition and measured every min for 10 mins by DTNB based Ellman's assay.
Cholinesterase, sequence (P81908 whole entry): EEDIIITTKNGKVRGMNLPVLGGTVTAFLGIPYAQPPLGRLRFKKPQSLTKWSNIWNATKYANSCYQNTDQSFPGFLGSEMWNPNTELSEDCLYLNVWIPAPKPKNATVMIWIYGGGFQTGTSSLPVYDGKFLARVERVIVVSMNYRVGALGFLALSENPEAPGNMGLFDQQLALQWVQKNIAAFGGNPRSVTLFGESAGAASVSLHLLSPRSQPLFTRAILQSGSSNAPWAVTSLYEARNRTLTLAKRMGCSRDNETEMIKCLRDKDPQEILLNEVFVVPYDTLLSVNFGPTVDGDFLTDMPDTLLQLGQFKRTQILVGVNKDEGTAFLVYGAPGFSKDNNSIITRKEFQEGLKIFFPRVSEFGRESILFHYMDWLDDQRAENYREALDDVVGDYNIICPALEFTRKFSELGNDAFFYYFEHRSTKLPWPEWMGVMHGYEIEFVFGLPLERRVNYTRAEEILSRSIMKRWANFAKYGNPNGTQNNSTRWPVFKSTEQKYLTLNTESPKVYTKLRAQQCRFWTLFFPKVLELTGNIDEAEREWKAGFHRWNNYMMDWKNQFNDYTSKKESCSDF
Data set [4] is described as follows: Selectivity index, ratio of IC50 for cytotoxicity against human SH-SY5Y cells to IC50 for inhibition of electric eel AChE.
The nature of data set [5]: in vitro. As to conditions: human, SH-SY5Y cells.
Description: Cytotoxicity against human SH-SY5Y cells assessed as reduction in cell viability incubated for 24 hrs by crystal violet staining based analysis
Data set [6] deals with Acetylcholinesterase (Electrophorus electricus) (UniProt O42275). Briefly: Mixed type inhibition of electric eel AChE using varying concentrations of acetylthiocholine iodide as substrate assessed as decrease in Vmax with varied Km by Lineweaver-Burk plot analysis.
Acetylcholinesterase (Electrophorus electricus), sequence (O42275 24-633 limits assumed): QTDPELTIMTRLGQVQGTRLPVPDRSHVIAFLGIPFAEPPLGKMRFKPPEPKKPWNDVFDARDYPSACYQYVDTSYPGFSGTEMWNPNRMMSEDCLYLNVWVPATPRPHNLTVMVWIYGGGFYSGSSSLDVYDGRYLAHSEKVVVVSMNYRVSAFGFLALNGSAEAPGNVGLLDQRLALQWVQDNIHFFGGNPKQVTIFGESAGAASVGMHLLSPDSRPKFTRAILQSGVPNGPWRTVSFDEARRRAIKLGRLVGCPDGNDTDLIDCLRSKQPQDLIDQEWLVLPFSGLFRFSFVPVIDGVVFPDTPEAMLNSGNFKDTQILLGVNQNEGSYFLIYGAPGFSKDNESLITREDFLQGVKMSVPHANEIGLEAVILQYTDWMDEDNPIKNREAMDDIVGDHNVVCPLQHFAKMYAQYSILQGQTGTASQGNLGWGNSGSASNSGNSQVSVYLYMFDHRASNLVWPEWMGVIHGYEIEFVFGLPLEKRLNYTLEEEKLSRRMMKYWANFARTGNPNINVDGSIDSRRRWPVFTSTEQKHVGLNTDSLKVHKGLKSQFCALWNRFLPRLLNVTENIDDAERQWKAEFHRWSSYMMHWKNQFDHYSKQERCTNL
In data set [7] the target is Cholinesterase (Equus caballus) (UniProt P81908). Briefly: Mixed type inhibition of equine serum BuChE using varying concentrations of butyrylthiocholine iodide as substrate assessed as decrease in Vmax with varied Km by Lineweaver-Burk plot analysis.
Cholinesterase (Equus caballus), sequence (P81908 whole entry): as the sequence (P81908 whole entry) above

Activity calls are given as the source filed them. The calls are words filed in the database; no cut-off is given here.

Broadly, the IC50 is the point on the concentration scale where inhibition reaches its midpoint. The low end stands for greater potency in that assay, the high end for weaker potency in that assay. On to `O=C(NCCCCCNc1c2c(nc3ccccc13)CCCC2)C1CCN(C(=O)c2cccc(Cl)c2)CC1`, for which the 50% inhibitory concentration (IC50) in data set [1] is 0.159 µM; in data set [3], 0.0705 µM. The “Ratio IC50” value in data set [2] came to 2082.3; in data set [4], 926.2. Further, the 50% inhibitory concentration (IC50) at 24 h in data set [5] stood at 147 µM.

Take `O=C(NCCCCCNc1c2c(nc3ccccc13)CCCC2)C1CCN(C(=O)c2ccccc2)CC1`: the 50% inhibitory concentration (IC50) in data set [1] worked out at 0.117 µM; in data set [3], 0.0465 µM. The “Ratio IC50” value in data set [2] stood at 1490.3; in data set [4], 589.8. Further, the 50% inhibitory concentration (IC50) at 24 h in data set [5] turned out to be 69.3 µM.

As to `O=C(NCCCCCNc1c2c(nc3ccccc13)CCCC2)C1CCN(C(=O)c2ccc(F)cc2)CC1`, the results for the IC50 in data set [1] and in data set [3] were 0.37 µM and 0.153 µM, respectively.

For `O=C(NCCCCCNc1c2c(nc3ccccc13)CCCC2)C1CCN(C(=O)c2cccc(F)c2)CC1`, the results for the half-inhibitory concentration (IC50) in data set [1] and in data set [3] were 0.139 µM and 0.0735 µM, respectively. For the same molecule, the “Ratio IC50” value is 789 in data set [2] and 417.2 in data set [4]. In addition, the IC50 at 24 h in data set [5] is 58 µM.

Take `COc1cccc(C(=O)N2CCC(C(=O)NCCCCCNc3c4c(nc5ccccc35)CCCC4)CC2)c1`: the IC50 in data set [1] amounted to 0.287 µM; in data set [3], 0.0605 µM. For the same molecule, the “Ratio IC50” value amounted to 1546.3 in data set [2] and 326 in data set [4]. Besides, the IC50 at 24 h in data set [5] came to 93.6 µM.

In the case of `O=C(NCCCCCNc1c2c(nc3ccccc13)CCCC2)C1CCN(C(=O)c2ccccc2Cl)CC1`, the IC50 was 0.156 µM in data set [1] and 0.0825 µM in data set [3]. Also, the inhibition entry in data set [6] and in data set [7] was “Active” each time. The figures for the “Ratio IC50” value in data set [2] and in data set [4] were 2247.9 and 1188.8, respectively. The same molecule gave an IC50 at 24 h in data set [5] of 186 µM.

For `O=C(NCCCCCNc1c2c(nc3ccccc13)CCCC2)C1CCN(C(=O)c2cccnc2)CC1`, the IC50 in data set [1] is 0.162 µM; in data set [3] it was 0.0985 µM.

`O=C(NCCCCCNc1c2c(nc3ccccc13)CCCC2)C1CCN(C(=O)c2ccccn2)CC1`: the results for the 50% inhibitory concentration (IC50) in data set [1] and in data set [3] were 0.455 µM and 0.324 µM, respectively. Besides, the “Ratio IC50” value in data set [2] is recorded as 347.1; in data set [4], 247.1. This molecule also gave an IC50 at 24 h in data set [5] of 112 µM.

With `O=C(NCCCCCNc1c2c(nc3ccccc13)CCCC2)C1CCN(C(=O)c2ccc(Cl)cc2)CC1`, the half-maximal inhibitory concentration (IC50) in data set [1] came to 0.443 µM; in data set [3] it was 0.114 µM. The “Ratio IC50” value in data set [2] stood at 268.5; in data set [4], 69.4. Besides, the IC50 at 24 h in data set [5] amounted to 30.7 µM.

With `O=C(NCCCCCNc1c2c(nc3ccccc13)CCCC2)C1CCN(C(=O)c2ccncc2)CC1`, the IC50 turned out to be 0.291 µM in data set [1] and 0.084 µM in data set [3]. In addition, the “Ratio IC50” value in data set [2] was determined as 1635.1; in data set [4], 472. In addition, half-maximal inhibition in data set [5] (IC50 at 24 h) required 137 µM.

As to `O=C(NCCCCCNc1c2c(nc3ccccc13)CCCC2)C1CCN(C(=O)c2ccccc2F)CC1`, the IC50 came out at 0.241 µM in data set [1] and 0.034 µM in data set [3]. This molecule yielded a half-inhibitory concentration (IC50) at 24 h in data set [5] of 192 µM.

In the case of `COc1ccccc1C(=O)N1CCC(C(=O)NCCCCCNc2c3c(nc4ccccc24)CCCC3)CC1`, the IC50 was determined as 0.226 µM in data set [1] and 0.048 µM in data set [3]. For the same molecule, the “Ratio IC50” value in data set [2] was 2266.7; in data set [4] it was 480.4. In data set [5], this molecule showed a half-inhibitory concentration (IC50) at 24 h of 109 µM.

As for `COc1ccc(C(=O)N2CCC(C(=O)NCCCCCNc3c4c(nc5ccccc35)CCCC4)CC2)cc1`, the IC50 in data set [1] is 0.222 µM; in data set [3], 0.246 µM. Moreover, the “Ratio IC50” value in data set [2] is given as 605.3; in data set [4], 667.9. In data set [5], half-maximal inhibition (IC50 at 24 h) was put at 149 µM.
